Tested on: maternal HIV+ sera (antibodies)
Assay: RIA / ELISA binding of maternal HIV+ sera to gp120 and gp41 peptides (Example 3)
Set-up: species or system human
How it was run: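 Maternal sera, diluted 1:50 and 1:500, were bound overnight at 4°C to peptides immobilized at 10 μg/ml (pH 9.6 carbonate) and blocked with 1% BSA. Read-out was ¹²⁵I-labelled anti-human IgG counts or HRP-TMB OD450. Signal with peptide minus without was expressed relative to seronegative serum.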

[1] = Serum No. 1, Non-Transmission Group
[2] = Serum No. 2, Non-Transmission Group
[3] = Serum No. 3, Non-Transmission Group
[4] = Serum No. 4, Transmission Group
[5] = Serum No. 5, Transmission Group
[6] = Serum No. 6, Non-Transmission Group
[7] = Serum No. 7, Non-Transmission Group
[8] = Serum No. 8, Non-Transmission Group
[9] = Serum No. 9, Non-Transmission Group
[10] = Serum No. 10, Transmission Group
[11] = Serum No. 11, Non-Transmission Group
[12] = Serum No. 12, Non-Transmission Group
[13] = Serum No. 13, Transmission Group
[14] = Serum No. 14, Transmission Group
[15] = Serum No. 15, Transmission Group
[16] = Serum No. 16, Non-Transmission Group
[17] = Serum No. 17, Non-Transmission Group
[18] = Serum No. 18, Non-Transmission Group
[19] = Serum No. 19, Transmission Group
[20] = Serum No. 20, Non-Transmission Group

Sequence | Binding of maternal HIV+ serum to peptide (sera/NHS ratio) [1] | Binding of maternal HIV+ serum to peptide (sera/NHS ratio) [2] | Binding of maternal HIV+ serum to peptide (sera/NHS ratio) [3] | Binding of maternal HIV+ serum to peptide (sera/NHS ratio) [4] | Binding of maternal HIV+ serum to peptide (sera/NHS ratio) [5] | Binding of maternal HIV+ serum to peptide (sera/NHS ratio) [6] | Binding of maternal HIV+ serum to peptide (sera/NHS ratio) [7] | Binding of maternal HIV+ serum to peptide (sera/NHS ratio) [8] | Binding of maternal HIV+ serum to peptide (sera/NHS ratio) [9] | Binding of maternal HIV+ serum to peptide (sera/NHS ratio) [10] | Binding of maternal HIV+ serum to peptide (sera/NHS ratio) [11] | Binding of maternal HIV+ serum to peptide (sera/NHS ratio) [12] | Binding of maternal HIV+ serum to peptide (sera/NHS ratio) [13] | Binding of maternal HIV+ serum to peptide (sera/NHS ratio) [14] | Binding of maternal HIV+ serum to peptide (sera/NHS ratio) [15] | Binding of maternal HIV+ serum to peptide (sera/NHS ratio) [16] | Binding of maternal HIV+ serum to peptide (sera/NHS ratio) [17] | Binding of maternal HIV+ serum to peptide (sera/NHS ratio) [18] | Binding of maternal HIV+ serum to peptide (sera/NHS ratio) [19] | Binding of maternal HIV+ serum to peptide (sera/NHS ratio) [20]
ASWSNKSLEQIWNNM [Peptide 36] | - (specific OD450 or cpm of sera sample binding to peptide divided by the specific OD450 or cpm of NHS sample binding to peptide, which value is less than 2) | - (specific OD450 or cpm of sera sample binding to peptide divided by the specific OD450 or cpm of NHS sample binding to peptide, which value is less than 2) | - (specific OD450 or cpm of sera sample binding to peptide divided by the specific OD450 or cpm of NHS sample binding to peptide, which value is less than 2) | - (specific OD450 or cpm of sera sample binding to peptide divided by the specific OD450 or cpm of NHS sample binding to peptide, which value is less than 2) | - (specific OD450 or cpm of sera sample binding to peptide divided by the specific OD450 or cpm of NHS sample binding to peptide, which value is less than 2) | - (specific OD450 or cpm of sera sample binding to peptide divided by the specific OD450 or cpm of NHS sample binding to peptide, which value is less than 2) | - (specific OD450 or cpm of sera sample binding to peptide divided by the specific OD450 or cpm of NHS sample binding to peptide, which value is less than 2) | - (specific OD450 or cpm of sera sample binding to peptide divided by the specific OD450 or cpm of NHS sample binding to peptide, which value is less than 2) | - (specific OD450 or cpm of sera sample binding to peptide divided by the specific OD450 or cpm of NHS sample binding to peptide, which value is less than 2) | - (specific OD450 or cpm of sera sample binding to peptide divided by the specific OD450 or cpm of NHS sample binding to peptide, which value is less than 2) | - (specific OD450 or cpm of sera sample binding to peptide divided by the specific OD450 or cpm of NHS sample binding to peptide, which value is less than 2) | - (specific OD450 or cpm of sera sample binding to peptide divided by the specific OD450 or cpm of NHS sample binding to peptide, which value is less than 2) | - (specific OD450 or cpm of sera sample binding to peptide divided by the specific OD450 or cpm of NHS sample binding to peptide, which value is less than 2) | - (specific OD450 or cpm of sera sample binding to peptide divided by the specific OD450 or cpm of NHS sample binding to peptide, which value is less than 2) | - (specific OD450 or cpm of sera sample binding to peptide divided by the specific OD450 or cpm of NHS sample binding to peptide, which value is less than 2) | - (specific OD450 or cpm of sera sample binding to peptide divided by the specific OD450 or cpm of NHS sample binding to peptide, which value is less than 2) | - (specific OD450 or cpm of sera sample binding to peptide divided by the specific OD450 or cpm of NHS sample binding to peptide, which value is less than 2) | - (specific OD450 or cpm of sera sample binding to peptide divided by the specific OD450 or cpm of NHS sample binding to peptide, which value is less than 2) | - (specific OD450 or cpm of sera sample binding to peptide divided by the specific OD450 or cpm of NHS sample binding to peptide, which value is less than 2) | - (specific OD450 or cpm of sera sample binding to peptide divided by the specific OD450 or cpm of NHS sample binding to peptide, which value is less than 2)
GYSPLSFQTHPIPR [Peptide 128] | - (specific OD450 or cpm of sera sample binding to peptide divided by the specific OD450 or cpm of NHS sample binding to peptide, which value is less than 2) | - (specific OD450 or cpm of sera sample binding to peptide divided by the specific OD450 or cpm of NHS sample binding to peptide, which value is less than 2) | - (specific OD450 or cpm of sera sample binding to peptide divided by the specific OD450 or cpm of NHS sample binding to peptide, which value is less than 2) | - (specific OD450 or cpm of sera sample binding to peptide divided by the specific OD450 or cpm of NHS sample binding to peptide, which value is less than 2) | - (specific OD450 or cpm of sera sample binding to peptide divided by the specific OD450 or cpm of NHS sample binding to peptide, which value is less than 2) | - (specific OD450 or cpm of sera sample binding to peptide divided by the specific OD450 or cpm of NHS sample binding to peptide, which value is less than 2) | - (specific OD450 or cpm of sera sample binding to peptide divided by the specific OD450 or cpm of NHS sample binding to peptide, which value is less than 2) | - (specific OD450 or cpm of sera sample binding to peptide divided by the specific OD450 or cpm of NHS sample binding to peptide, which value is less than 2) | - (specific OD450 or cpm of sera sample binding to peptide divided by the specific OD450 or cpm of NHS sample binding to peptide, which value is less than 2) | - (specific OD450 or cpm of sera sample binding to peptide divided by the specific OD450 or cpm of NHS sample binding to peptide, which value is less than 2) | - (specific OD450 or cpm of sera sample binding to peptide divided by the specific OD450 or cpm of NHS sample binding to peptide, which value is less than 2) | - (specific OD450 or cpm of sera sample binding to peptide divided by the specific OD450 or cpm of NHS sample binding to peptide, which value is less than 2) | - (specific OD450 or cpm of sera sample binding to peptide divided by the specific OD450 or cpm of NHS sample binding to peptide, which value is less than 2) | - (specific OD450 or cpm of sera sample binding to peptide divided by the specific OD450 or cpm of NHS sample binding to peptide, which value is less than 2) | - (specific OD450 or cpm of sera sample binding to peptide divided by the specific OD450 or cpm of NHS sample binding to peptide, which value is less than 2) | - (specific OD450 or cpm of sera sample binding to peptide divided by the specific OD450 or cpm of NHS sample binding to peptide, which value is less than 2) | - (specific OD450 or cpm of sera sample binding to peptide divided by the specific OD450 or cpm of NHS sample binding to peptide, which value is less than 2) | - (specific OD450 or cpm of sera sample binding to peptide divided by the specific OD450 or cpm of NHS sample binding to peptide, which value is less than 2) | - (specific OD450 or cpm of sera sample binding to peptide divided by the specific OD450 or cpm of NHS sample binding to peptide, which value is less than 2) | - (specific OD450 or cpm of sera sample binding to peptide divided by the specific OD450 or cpm of NHS sample binding to peptide, which value is less than 2)
